US12304890B2, “R-type pyridyloxycarboxylic acid, salt and ester derivative thereof, and preparation method therefor, and herbicidal composition and application thereof” (Qingdao Kingagroot Chemical Compound Co., Ltd., priority 2018, dated 2025)

Assays:
Assay type in all cases: in vivo
[1] = test system: Monocotyledonous and dicotyledonous weed seeds and main crop seeds; assay: Post-emergence test experiment, other weeds and crops (Table 4, 1000 g a.i./ha); settings: 3 weeks in greenhouse, fresh weight inhibition
Outline: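 Weed and crop seeds (wheat, corn, rice, soybean, cotton, oilseed, millet, sorghum) sown in soil pots in a greenhouse and sprayed at 2-3 leaf stage, 2 weeks after sowing. Compound in acetone/tween-80 with methyl oleate concentrate (1.5 L/ha) as synergist. Effect recorded as fresh-weight growth inhibition rate.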

Echinochloa crusgalli = assay: Post-emergence test experiment, Echinochloa crusgalli; settings: 1000 g a.i./ha, 3 weeks in greenhouse, fresh weight inhibition
Outline: (§1)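 Pot-grown plants, sown 2 weeks earlier and at 2-3 leaves, received a foliar spray of compound in acetone/tween-80 with methyl oleate adjuvant. Effect was expressed as fresh weight inhibition rate after three further greenhouse weeks.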

Digitaria sanguinalis = assay: Post-emergence test experiment, Digitaria sanguinalis; settings: 1000 g a.i./ha, 3 weeks in greenhouse, fresh weight inhibition
Outline: as §1

COC(=O)[C@@H](C)Oc1nc(F)c(Cl)c(NCc2ccco2)c1Cl [Compound 2-378]
Activity level (growth inhibition rate), Abutilon theophrasti Medic. [1]: 5 (Level 5: the growth inhibition rate is greater than 85%) | Activity level (growth inhibition rate), Galium aparine [1]: 5 (Level 5: the growth inhibition rate is greater than 85%) | Activity level (growth inhibition rate), Monochoria Vaginalis [1]: 5 (Level 5: the growth inhibition rate is greater than 85%) | Activity level (growth inhibition rate), Echinochloa crusgalli (Echinochloa crusgalli): 5 (Level 5: the growth inhibition rate is greater than 85%) | Activity level (growth inhibition rate), Digitaria sanguinalis (Digitaria sanguinalis): 5 (Level 5: the growth inhibition rate is greater than 85%)

COC(=O)OC(C)OC(=O)C(C)Oc1nc(F)c(Cl)c(N)c1Cl (centres unmarked) [Compound 2-296]
Activity level (growth inhibition rate), Abutilon theophrasti Medic. [1]: 5 (Level 5: the growth inhibition rate is greater than 85%) | Activity level (growth inhibition rate), Galium aparine [1]: 5 (Level 5: the growth inhibition rate is greater than 85%) | Activity level (growth inhibition rate), Monochoria Vaginalis [1]: 5 (Level 5: the growth inhibition rate is greater than 85%) | Activity level (growth inhibition rate), Echinochloa crusgalli (Echinochloa crusgalli): 5 (Level 5: the growth inhibition rate is greater than 85%) | Activity level (growth inhibition rate), Digitaria sanguinalis (Digitaria sanguinalis): 5 (Level 5: the growth inhibition rate is greater than 85%)

CC(Oc1nc(F)c(Cl)c(N)c1Cl)C(=O)OCc1cccc(Cl)c1 (centres unmarked) [Compound 2-316]
Activity level (growth inhibition rate), Abutilon theophrasti Medic. [1]: 5 (Level 5: the growth inhibition rate is greater than 85%) | Activity level (growth inhibition rate), Galium aparine [1]: 5 (Level 5: the growth inhibition rate is greater than 85%) | Activity level (growth inhibition rate), Monochoria Vaginalis [1]: 5 (Level 5: the growth inhibition rate is greater than 85%) | Activity level (growth inhibition rate), Echinochloa crusgalli (Echinochloa crusgalli): 5 (Level 5: the growth inhibition rate is greater than 85%) | Activity level (growth inhibition rate), Digitaria sanguinalis (Digitaria sanguinalis): 5 (Level 5: the growth inhibition rate is greater than 85%)

CC(Oc1nc(F)c(Cl)c(N)c1Cl)C(=O)Sc1cccc(Cl)c1 (centres unmarked) [Compound 2-357]
Activity level (growth inhibition rate), Abutilon theophrasti Medic. [1]: 5 (Level 5: the growth inhibition rate is greater than 85%) | Activity level (growth inhibition rate), Galium aparine [1]: 5 (Level 5: the growth inhibition rate is greater than 85%) | Activity level (growth inhibition rate), Monochoria Vaginalis [1]: 5 (Level 5: the growth inhibition rate is greater than 85%) | Activity level (growth inhibition rate), Echinochloa crusgalli (Echinochloa crusgalli): 5 (Level 5: the growth inhibition rate is greater than 85%) | Activity level (growth inhibition rate), Digitaria sanguinalis (Digitaria sanguinalis): 5 (Level 5: the growth inhibition rate is greater than 85%)

C1COCCN1.CC(Oc1nc(F)c(Cl)c(N)c1Cl)C(=O)O (centres unmarked) [Compound 2-24]
Activity level (growth inhibition rate), Abutilon theophrasti Medic. [1]: 5 (Level 5: the growth inhibition rate is greater than 85%) | Activity level (growth inhibition rate), Galium aparine [1]: 5 (Level 5: the growth inhibition rate is greater than 85%) | Activity level (growth inhibition rate), Monochoria Vaginalis [1]: 5 (Level 5: the growth inhibition rate is greater than 85%) | Activity level (growth inhibition rate), Echinochloa crusgalli (Echinochloa crusgalli): 5 (Level 5: the growth inhibition rate is greater than 85%) | Activity level (growth inhibition rate), Digitaria sanguinalis (Digitaria sanguinalis): 5 (Level 5: the growth inhibition rate is greater than 85%)

CC(C)SC(=O)[C@@H](C)Oc1nc(F)c(Cl)c(N)c1Cl [Compound 2-76]
Activity level (growth inhibition rate), Abutilon theophrasti Medic. [1]: 5 (Level 5: the growth inhibition rate is greater than 85%) | Activity level (growth inhibition rate), Galium aparine [1]: 5 (Level 5: the growth inhibition rate is greater than 85%) | Activity level (growth inhibition rate), Monochoria Vaginalis [1]: 5 (Level 5: the growth inhibition rate is greater than 85%) | Activity level (growth inhibition rate), Echinochloa crusgalli (Echinochloa crusgalli): 5 (Level 5: the growth inhibition rate is greater than 85%) | Activity level (growth inhibition rate), Digitaria sanguinalis (Digitaria sanguinalis): 5 (Level 5: the growth inhibition rate is greater than 85%)

CC(Oc1nc(F)c(Cl)c(N)c1Cl)C(=O)O.CCC(N)(CO)CO (centres unmarked) [Compound 2-22]
Activity level (growth inhibition rate), Abutilon theophrasti Medic. [1]: 5 (Level 5: the growth inhibition rate is greater than 85%) | Activity level (growth inhibition rate), Galium aparine [1]: 5 (Level 5: the growth inhibition rate is greater than 85%) | Activity level (growth inhibition rate), Monochoria Vaginalis [1]: 5 (Level 5: the growth inhibition rate is greater than 85%) | Activity level (growth inhibition rate), Echinochloa crusgalli (Echinochloa crusgalli): 5 (Level 5: the growth inhibition rate is greater than 85%) | Activity level (growth inhibition rate), Digitaria sanguinalis (Digitaria sanguinalis): 5 (Level 5: the growth inhibition rate is greater than 85%)

C[C@@H](Oc1nc(F)c(Cl)c(N)c1Cl)C(=O)OCCBr [Compound 2-278]
Activity level (growth inhibition rate), Abutilon theophrasti Medic. [1]: 5 (Level 5: the growth inhibition rate is greater than 85%) | Activity level (growth inhibition rate), Galium aparine [1]: 5 (Level 5: the growth inhibition rate is greater than 85%) | Activity level (growth inhibition rate), Monochoria Vaginalis [1]: 5 (Level 5: the growth inhibition rate is greater than 85%) | Activity level (growth inhibition rate), Echinochloa crusgalli (Echinochloa crusgalli): 5 (Level 5: the growth inhibition rate is greater than 85%) | Activity level (growth inhibition rate), Digitaria sanguinalis (Digitaria sanguinalis): 5 (Level 5: the growth inhibition rate is greater than 85%)

COCCOC(=O)C(C)Oc1nc(C)c(Cl)c(N)c1Cl (centres unmarked) [Compound 2-270]
Activity level (growth inhibition rate), Abutilon theophrasti Medic. [1]: 5 (Level 5: the growth inhibition rate is greater than 85%) | Activity level (growth inhibition rate), Galium aparine [1]: 5 (Level 5: the growth inhibition rate is greater than 85%) | Activity level (growth inhibition rate), Monochoria Vaginalis [1]: 5 (Level 5: the growth inhibition rate is greater than 85%) | Activity level (growth inhibition rate), Echinochloa crusgalli (Echinochloa crusgalli): 5 (Level 5: the growth inhibition rate is greater than 85%) | Activity level (growth inhibition rate), Digitaria sanguinalis (Digitaria sanguinalis): 5 (Level 5: the growth inhibition rate is greater than 85%)

CC(N)CN.CC(Oc1nc(F)c(Cl)c(N)c1Cl)C(=O)S (centres unmarked) [Compound 2-17]
Activity level (growth inhibition rate), Abutilon theophrasti Medic. [1]: 5 (Level 5: the growth inhibition rate is greater than 85%) | Activity level (growth inhibition rate), Galium aparine [1]: 5 (Level 5: the growth inhibition rate is greater than 85%) | Activity level (growth inhibition rate), Monochoria Vaginalis [1]: 5 (Level 5: the growth inhibition rate is greater than 85%) | Activity level (growth inhibition rate), Echinochloa crusgalli (Echinochloa crusgalli): 5 (Level 5: the growth inhibition rate is greater than 85%) | Activity level (growth inhibition rate), Digitaria sanguinalis (Digitaria sanguinalis): 5 (Level 5: the growth inhibition rate is greater than 85%)

CC(C)C(C)SC(=O)[C@@H](C)Oc1nc(F)c(Cl)c(N)c1Cl (some centres unmarked) [Compound 2-96]
Activity level (growth inhibition rate), Abutilon theophrasti Medic. [1]: 5 (Level 5: the growth inhibition rate is greater than 85%) | Activity level (growth inhibition rate), Galium aparine [1]: 5 (Level 5: the growth inhibition rate is greater than 85%) | Activity level (growth inhibition rate), Monochoria Vaginalis [1]: 5 (Level 5: the growth inhibition rate is greater than 85%) | Activity level (growth inhibition rate), Echinochloa crusgalli (Echinochloa crusgalli): 5 (Level 5: the growth inhibition rate is greater than 85%) | Activity level (growth inhibition rate), Digitaria sanguinalis (Digitaria sanguinalis): 5 (Level 5: the growth inhibition rate is greater than 85%)

CCC(C)SC(=O)[C@@H](C)Oc1nc(F)c(Cl)c(N)c1Cl (some centres unmarked) [Compound 2-82]
Activity level (growth inhibition rate), Abutilon theophrasti Medic. [1]: 5 (Level 5: the growth inhibition rate is greater than 85%) | Activity level (growth inhibition rate), Galium aparine [1]: 5 (Level 5: the growth inhibition rate is greater than 85%) | Activity level (growth inhibition rate), Monochoria Vaginalis [1]: 5 (Level 5: the growth inhibition rate is greater than 85%) | Activity level (growth inhibition rate), Echinochloa crusgalli (Echinochloa crusgalli): 5 (Level 5: the growth inhibition rate is greater than 85%) | Activity level (growth inhibition rate), Digitaria sanguinalis (Digitaria sanguinalis): 5 (Level 5: the growth inhibition rate is greater than 85%)

COCCCSC(=O)C(C)Oc1nc(F)c(Cl)c(N)c1Cl (centres unmarked) [Compound 2-272]
Activity level (growth inhibition rate), Abutilon theophrasti Medic. [1]: 5 (Level 5: the growth inhibition rate is greater than 85%) | Activity level (growth inhibition rate), Galium aparine [1]: 5 (Level 5: the growth inhibition rate is greater than 85%) | Activity level (growth inhibition rate), Monochoria Vaginalis [1]: 5 (Level 5: the growth inhibition rate is greater than 85%) | Activity level (growth inhibition rate), Echinochloa crusgalli (Echinochloa crusgalli): 5 (Level 5: the growth inhibition rate is greater than 85%) | Activity level (growth inhibition rate), Digitaria sanguinalis (Digitaria sanguinalis): 5 (Level 5: the growth inhibition rate is greater than 85%)

CC(Oc1nc(F)c(Cl)c(N)c1Cl)C(=O)Oc1ccccc1 (centres unmarked) [Compound 2-299]
Activity level (growth inhibition rate), Abutilon theophrasti Medic. [1]: 5 (Level 5: the growth inhibition rate is greater than 85%) | Activity level (growth inhibition rate), Galium aparine [1]: 5 (Level 5: the growth inhibition rate is greater than 85%) | Activity level (growth inhibition rate), Monochoria Vaginalis [1]: 5 (Level 5: the growth inhibition rate is greater than 85%) | Activity level (growth inhibition rate), Echinochloa crusgalli (Echinochloa crusgalli): 5 (Level 5: the growth inhibition rate is greater than 85%) | Activity level (growth inhibition rate), Digitaria sanguinalis (Digitaria sanguinalis): 5 (Level 5: the growth inhibition rate is greater than 85%)

CCC(C)(C)SC(=O)C(C)Oc1nc(F)c(Cl)c(N)c1Cl (centres unmarked) [Compound 2-100]
Activity level (growth inhibition rate), Abutilon theophrasti Medic. [1]: 5 (Level 5: the growth inhibition rate is greater than 85%) | Activity level (growth inhibition rate), Galium aparine [1]: 5 (Level 5: the growth inhibition rate is greater than 85%) | Activity level (growth inhibition rate), Monochoria Vaginalis [1]: 5 (Level 5: the growth inhibition rate is greater than 85%) | Activity level (growth inhibition rate), Echinochloa crusgalli (Echinochloa crusgalli): 5 (Level 5: the growth inhibition rate is greater than 85%) | Activity level (growth inhibition rate), Digitaria sanguinalis (Digitaria sanguinalis): 5 (Level 5: the growth inhibition rate is greater than 85%)

CCC(C)CSC(=O)[C@@H](C)Oc1nc(F)c(Cl)c(N)c1Cl (some centres unmarked) [Compound 2-88]
Activity level (growth inhibition rate), Abutilon theophrasti Medic. [1]: 5 (Level 5: the growth inhibition rate is greater than 85%) | Activity level (growth inhibition rate), Galium aparine [1]: 5 (Level 5: the growth inhibition rate is greater than 85%) | Activity level (growth inhibition rate), Monochoria Vaginalis [1]: 5 (Level 5: the growth inhibition rate is greater than 85%) | Activity level (growth inhibition rate), Echinochloa crusgalli (Echinochloa crusgalli): 5 (Level 5: the growth inhibition rate is greater than 85%) | Activity level (growth inhibition rate), Digitaria sanguinalis (Digitaria sanguinalis): 5 (Level 5: the growth inhibition rate is greater than 85%)
